Assay results reported in patent US4533498A, “Compounds” (Beecham Group p.l.c., priority 1983, dated 1985).

How the values were obtained:
intragastric pressure = assay: Increase in intragastric pressure (conscious restrained rats, gastric fistula); assay type: in vivo, rat; settings: 40 minute period after administration, Student's t test vs spontaneous activity
Method: Intragastric pressure changes were recorded from previously starved conscious but restrained rats using a saline filled catheter inserted into the lumen of the stomach via a permanent gastric fistula. The catheter was connected to a physiological pressure transducer and pressure changes recorded on a hot wire pen recorder. In each animal a pre-dose period of 40 minutes was allowed to obtain a measure of spontaneous activity. An index of activity was obtained by measuring the average height of pressure waves during 10 minute periods. Values for 4 such periods were obtained during assessment of spontaneous activity and for a 40 minute period after administration of compound. Student's `t` test was applied to the difference in average values obtained for spontaneous and post compound activity.

vomiting response = assay: Anti-emetic activity in the dog: inhibition of apomorphine-induced vomiting response; assay type: in vivo; settings: s.c. 30 minutes prior to apomorphine HCl 0.1 mg/kg s.c.; for ED50: Canis lupus familiaris, sc
Method: Compounds were administered subcutaneously 30 minutes prior to administration of a standard dose of apormorphine HCl (0.1 mg/kg subcutaneously) and the vomiting response compared to that obtained when the same animals were dosed with apomorphine HCl and vehicle only. The ED50 value for inhibition of the vomiting response determined for compounds (17), (29) and (30) was 0.1 mg/kg, and for compound (19) 0.01 mg/kg s.c.

dopamine receptor = assay: Dopamine receptor blocking activity in the central nervous system: inhibition of apomorphine induced climbing in the mouse; assay type: in vivo; settings: apomorphine 1 mg/kg s.c.; for ED50 (inhibition of apomorphine induced climbing): scored at 10, 20 and 30 minutes; for inhibition of apomorphine induced climbing, result in words: printed beside ED50 10 mg/kg s.c.
Method: Compounds were tested for inhibition of apomorphine induced climbing in the mouse. The test is based on that described by Protais, P., Constantin, J. and Schwartz, J. C. (1976), Psychopharmacology, 50, 1-6.
Apomorphine 1 mg/kg s.c. induces mice to climb the wall of a wire cage (inverted food hopper--11×7.5×18 cm high). Mice acclimatised in their home cages in groups of 5 are placed under the hoppers immediately after the injection of apomorphine 1 mg/kg s.c. At 10, 20 and 30 minutes after injection climbing behaviour is scored. The mice are observed for 30 seconds and scored according to the position they spend the majority of time in, score 0--four paws on floor of cage; score 1--fore paws only on walls; score 2--all paws on wall of cage. The scores at all 3 times and for each mouse are summed and mice drug treated compared to mice receiving apomorphine only. A saline only treated group is also included and any score, generally >5% of maximum taken into account.

SMILES	index of activity (average height of pressure waves) post administration (intragastric pressure; 0.5 mg/kg s.c.)	ED50 (vomiting response) [mg/kg]	ED50 (inhibition of apomorphine induced climbing) (dopamine receptor) [mg/kg s.c.]	inhibition of apomorphine induced climbing, result in words (dopamine receptor)	index of activity (average height of pressure waves) post administration (intragastric pressure; 1.0 mg/kg s.c.)	ED50 value for inhibition of the vomiting response (vomiting response) [mg/kg]
COc1cc(N)c(Cl)cc1C(=O)NC1CC2CCC1CN2C (racemic) [Compound 17, (±)-4-Amino-5-chloro-2-methoxy-N-(5-[2-methyl-2-azabicyclo[2,2,2]octyl]benzamide]	significantly increased the index of activity	0.1	7.7			
COc1cc(N)c(Cl)cc1C(=O)NC1CC2CCC1CN2C (racemic) [Compound 18, (±) 4-Amino-5-chloro-2-methoxy-N-(5-[2-methyl-2-azabicyclo[2,2,2]octyl]benzamide]	significantly increased the index of activity		10	inactive		
COc1cc(N)c(Cl)cc1C(=O)NC1CC2CCC1CN2Cc1ccccc1 (racemic) [Compound 19, (±)-4-Amino-5-chloro-2-methoxy-N-(5-[2-benzyl-2-azabicyclo[2,2,2]octyl]benzamide]		0.01	0.36		similarly active	
COc1cc(N)c(Cl)cc1C(=O)NC1CC2CCC1CN2Cc1ccccc1 (racemic) [Compound 20, (±) 4-Amino-5-chloro-2-methoxy-N-(5-[2-benzyl-2-azabicyclo[2,2,2]octyl])benzamide]	significantly increased the index of activity		3.6			
COc1cc(N)c(Cl)cc1C(=O)NC1CC2CC1CN2C (racemic) [Compound 26, (±) 4-amino-5-chloro-2-methoxy-N-[5-(2-methyl-2-azabicyclo(2.2.1)heptyl)]benzamide]	significantly increased the index of activity		10	inactive		
COc1cc(N)c(S(C)(=O)=O)cc1C(=O)NC1CC2CCC1CN2Cc1ccccc1 (stereo not shown) [Compound 29, 4-amino-2-methoxy-5-methylsulphonyl-N-[5-(2-benzyl-2-azabicyclo(2.2.2)octyl)]benzamide]		0.1				
COc1cc(N)c(S(C)(=O)=O)cc1C(=O)NC1CC2CCC1CN2Cc1ccccc1 (stereo not shown) [Compound 30, 4-amino-2-methoxy-5-methylsulphonyl-N-[5-(2-benzyl-2-azabicyclo(2.2.2)octyl)]benzamide]						0.1
